What all share (assay): NCI anticancer screen, dose series, 48 h
Test [1] concerns U-251.
The subject of test [2] is ACHN.
In test [3] the test system is EKVX.
The test system of test [4] is UACC-62.
The test system of test [5] is SK-MEL-28.
In test [6] the test system is CAKI-1.
Test [7] relates to 786-0.
Test [8] relates to OVCAR-8.
For test [9], the system named is SNB-75.
Test [10] deals with SF-295.
For test [11], the system named is KM12.
Test [12] relates to HT-29.
Test [13] relates to SK-MEL-5.
Test [14] deals with UO-31.
The subject of test [15] is NCI-H23.
The subject of test [16] is SNB-19.
Test [17] concerns HCT-116.
The test system of test [18] is IGROV-1.
Test [19] relates to SN12C.
The subject of test [20] is RPMI-8226.

Molecules are shown by their SMILES.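 Step 1: Grow cells in 96-well plates. Step 2: Expose to compound for 48 hours at 5 concentrations. Step 3: Interpolate endpoints linearly; if unreached, use highest concentration. The concentration for 50% growth inhibition is given as GI50.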 Activity calls are given as the source filed them. No stated cut-off is given here; in the data, active = GI50 up to about 1.1 µM and inactive = higher.

For `COc1cccc(CCn2c(N)c(C#N)c3ccc([N+](=O)[O-])cc3c2=O)c1`, the GI50 in test [1] was > 100 µM (inactive); in test [2] it was > 46.5 µM (inactive); in [3], > 31.6 µM (inactive); in test [4], > 31.6 µM (inactive); in test [5] it was > 100 µM (inactive); in test [6] it was > 46.5 µM (inactive). Also, the GI50 was > 46.5 µM (inactive) in [7]; > 46.5 µM (inactive) in test [8]; > 46.5 µM (inactive) in test [9]; > 31.6 µM (inactive) in test [10]; > 31.6 µM (inactive) in test [11]; > 31.6 µM (inactive) in test [12]. Moreover, the GI50 was > 100 µM (inactive) in test [13]; > 46.5 µM (inactive) in test [14]; > 46.5 µM (inactive) in test [15]; 98.2 µM (inactive) in test [16]; > 46.5 µM (inactive) in [17]; > 31.6 µM (inactive) in [18]. Moreover, the GI50 in test [19] was > 100 µM (inactive).

Turning to `O=S(=O)(N/C(=N\O)Nc1ccc(Cl)cc1)c1cc2ccccc2s1`, the GI50 was 15.2 µM (inactive) in test [1]; 16.4 µM (inactive) in [2]; 12.9 µM (inactive) in [3]; 15.3 µM (inactive) in test [4]; 19.4 µM (inactive) in test [5]; 15.8 µM (inactive) in test [6]. Besides, the GI50 in test [7] is 18.4 µM (inactive); in [8] it was 16.8 µM (inactive); in test [9], 12.7 µM (inactive); in test [10], 20.1 µM (inactive); in test [11], 22.3 µM (inactive); in [12], 19.6 µM (inactive). The GI50 in test [13] was 16.3 µM (inactive); in [14] it was 33.9 µM (inactive); in test [15], 16 µM (inactive); in test [16], 17 µM (inactive); in test [17], 16.6 µM (inactive); in test [18] it was 13.5 µM (inactive). In addition, the GI50 in [19] was 18.6 µM (inactive).

With `CCOC(=O)N/N=C(/N)Cc1ccccc1`, the GI50 in test [1] is > 10 µM (inactive); in test [2], > 100 µM (inactive); in test [3] it was > 100 µM (inactive); in test [4] it was > 100 µM (inactive); in [5], > 100 µM (inactive); in [6], > 100 µM (inactive). The GI50 in [7], in test [8], in [9], in [10], in test [11] and in test [13] was > 100 µM (inactive) each time. In addition, the GI50 in [14], in test [16], in test [17], in [18] and in [19] was > 100 µM (inactive) each time.

Take `CC12CCC3C(CCC4=CC(O)CCC43C=O)C1(O)CCC2c1ccc(=O)oc1` (configuration not stated): the GI50 in test [1] is 0.00556 µM (active); in test [3], 0.0124 µM (active); in test [4], 0.05 µM (active); in test [5], 0.05 µM (active); in test [8] it was 0.00622 µM (active); in test [9], 0.011 µM (active). In addition, the GI50 in test [10] is 0.0104 µM (active); in test [11], 0.0129 µM (active); in test [12], 0.00929 µM (active); in [13], 0.00622 µM (active); in test [14], 0.027 µM (active); in [15], 0.00226 µM (active). For the same compound, the GI50 in test [20] is 0.05 µM (active); in test [16], 0.00622 µM (active); in [17], 0.05 µM (active); in [18], 0.00984 µM (active); in test [19], 0.00438 µM (active).

For the compound `COc1ccc(CCn2ccc(C)n2)c(OC)c1`, the GI50 in [1] was > 100 µM (inactive); in [2], > 100 µM (inactive); in test [3] it was 47.2 µM (inactive); in test [4], 90.8 µM (inactive); in test [5], > 100 µM (inactive); in [6], > 100 µM (inactive). Also, the GI50 is > 100 µM (inactive) in test [8]; 34 µM (inactive) in test [9]; > 100 µM (inactive) in test [10]; > 100 µM (inactive) in test [11]; > 100 µM (inactive) in test [12]; > 100 µM (inactive) in test [13]. For the same compound, the GI50 in test [14] is 46.6 µM (inactive); in test [15], > 100 µM (inactive); in test [16] it was > 100 µM (inactive); in test [17], > 100 µM (inactive); in test [18] it was > 100 µM (inactive); in test [19], 46 µM (inactive).

`CC1C2CC(C(C3C(=O)C4CC3C(C)(C)C4C)C2=O)C1(C)C` (configuration not stated): the GI50 in test [1], in [2], in test [3], in [4], in test [5] and in test [6] was > 100 µM (inactive) each time. Besides, the GI50 in test [7], in test [8], in test [9], in test [10], in test [11] and in test [12] was > 100 µM (inactive) throughout. Moreover, the GI50 in test [13], in [14], in test [15], in test [16], in test [17] and in test [18] was > 100 µM (inactive) each time. The GI50 in test [19] is > 100 µM (inactive).

Regarding `COC(=O)C#CC(N)=O`, the GI50 in test [1] is > 100 µM (inactive); in [2], > 100 µM (inactive); in test [3], > 100 µM (inactive); in test [4], > 64.7 µM (inactive); in test [5] it was 17.9 µM (inactive); in test [6] it was 28.1 µM (inactive). The GI50 in test [7] was > 59.3 µM (inactive); in test [8], 30.7 µM (inactive); in test [9] it was 35.1 µM (inactive); in test [10], > 100 µM (inactive); in test [11] it was > 100 µM (inactive); in test [12], > 100 µM (inactive). Further, the GI50 is > 100 µM (inactive) in [13]; > 100 µM (inactive) in test [14]; > 100 µM (inactive) in test [15]; > 100 µM (inactive) in test [16]; 98.2 µM (inactive) in test [17]; > 100 µM (inactive) in test [18]. Besides, in [19], the GI50 was > 100 µM (inactive).

As to `NC(=O)c1oc([N+](=O)[O-])c(-c2ccccc2)c1-c1ccccc1`, the GI50 in [1] was 24.3 µM (inactive); in test [2], 26.2 µM (inactive); in [3], 17.6 µM (inactive); in test [4], 8.65 µM (inactive); in test [5], 44 µM (inactive); in test [6], 18.4 µM (inactive). Also, the GI50 in [7] was 25.1 µM (inactive); in test [8] it was 24.8 µM (inactive); in [9] it was 65.9 µM (inactive); in [10], 15.8 µM (inactive); in [11], 13.6 µM (inactive); in test [12] it was 27.2 µM (inactive). Also, the GI50 in test [13] is 0.597 µM (active); in [14] it was 16.3 µM (inactive); in [15], 15.4 µM (inactive); in [16], 38.5 µM (inactive); in test [17], 15.4 µM (inactive); in test [18], 12.9 µM (inactive). In [19], the GI50 was 0.0367 µM (active).

The values above are taken from ChEMBL document CHEMBL1201862, “PubChem BioAssay data set” (2004).
